Experimental findings from the supplement of paper PMC10290057 are described below.

For test [1], the system named is HCT116. In words: AC50 cell viability (CellTiter-Glo); higher = less potent. The note with it: 48 h. A general note: ATP-based viability assays read luminescence as a measure of living cells.
The test system of test [2] is HCT116. In words: efficacy (fitted maximal change in viability relative to DMSO control); higher = less cytotoxic (negative = loss of viability). The following applies: 48 h.
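For AC50 cell viability (CellTiter-Glo) in this document: HCT116 colorectal carcinoma cells screened at five concentrations per compound, luminescent viability scaled between DMSO wells and empty wells on each plate, curves fitted per compound.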
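For efficacy (fitted maximal change in viability relative to DMSO control) in this document: Luminescence-based viability readout, five doses per compound, normalized against on-plate DMSO and empty-well controls, followed by dose-response curve fitting for every drug.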

Turning to `CC(C)[C@H](CO)Nc1nc(Nc2cccc(Cl)c2)c2ncn(C(C)C)c2n1` [Purvalanol A], the AC50 cell viability in test [1] came to 13.2 µM. Besides, the efficacy in test [2] was -110%.

As for `NCCOc1cc(C(=O)Nc2cc(OCCN)c3ccccc3n2)nc(C(=O)Nc2cc(OCCN)c3ccccc3n2)c1` [Pyridostatin], in test [1], the AC50 cell viability was determined as 18.6 µM. For the same compound, the efficacy in test [2] was -78.9%.

In the case of `CCc1nc(N)nc(N)c1-c1ccc(Cl)cc1` [Pyrimethamine], the AC50 cell viability in test [1] came to 3.32 µM. In addition, the efficacy in test [2] is -88.5%.

As for `O=C(CCCCCCC(=O)Nc1cccnc1)NO` [Pyroxamide], the AC50 cell viability in test [1] amounted to 2.95 µM. For the same compound, the efficacy in test [2] is -87.9%.

In test [1], `OC[C@H](Cc1ccccc1)Nc1nc(Oc2ccc3c(c2)CCC3)nc2c1ncn2Cc1ccc(-c2ccccc2)cc1` [QS11] yielded an AC50 cell viability of 9.34 µM. The efficacy in test [2] is -49.7%.

As for `CCN(CC)CCCC(C)Nc1c2ccc(Cl)cc2nc2ccc(OC)cc12.Cl.Cl.O.O` (stereo not given) [Quinacrine], in test [1], the AC50 cell viability was 8.33 µM. Also, the efficacy in test [2] was -90.5%.

On to `Cn1cc(CNCC2CCN(c3ncc(C(=O)NO)cn3)CC2)c2ccccc21` [Quisinostat], for which, in test [1], the AC50 cell viability is 0.0742 µM. Further, the efficacy in test [2] was -81.9%.

With `CC(C)(C)c1cc(NC(=O)Nc2ccc(-c3cn4c(n3)sc3cc(OCCN5CCOCC5)ccc34)cc2)no1` [Quizartinib], the AC50 cell viability in test [1] worked out at 13.2 µM. Further, the efficacy in test [2] is -74.1%.

In test [1], `COc1cc(Nc2ncc(F)c(Nc3ccc4c(n3)NC(=O)C(C)(C)O4)n2)cc(OC)c1OC` [R-406] showed an AC50 cell viability of 3.72 µM. In addition, the efficacy in test [2] was -30.6%.

As for `COc1ccc(F)c(F)c1C(=O)c1cnc(NC2CCN([S+](C)(=O)[O-])CC2)nc1N` [R-547], the AC50 cell viability in test [1] was determined as 0.417 µM. Also, the efficacy in test [2] is -67.8%.

On to `COC1=C(F)C=C\2C(=C1)\N=C/3NNC(=C3\N=C2C4=CC=CC=C4Cl)/C` [R-1530], for which, in test [1], the AC50 cell viability stood at 14.8 µM. Besides, in test [2], the efficacy was -73.2%.

For `FC(F)(F)c1ccc(Nc2nc3cc(Oc4ccnc(-c5ncc(C(F)(F)F)[nH]5)c4)ccc3[nH]2)cc1` [RAF-265 derivative], the AC50 cell viability in test [1] was determined as 14.8 µM. Moreover, the efficacy in test [2] is -84.8%.

`Cc1ncc(NC(=O)c2cccc(C(F)(F)F)c2)cc1-c1cnc(OC2CCOCC2)c(N2CCOCC2)c1` [RAF-709] came in with an AC50 cell viability in test [1] of 0.525 µM. Besides, in test [2], the efficacy is -84.5%.

Consider `Cc1cc(Nc2cc(NC(=O)c3c(Cl)cccc3Cl)ccn2)nc(N)n1` [RO495], for which the AC50 cell viability in test [1] was found to be 1.18 µM. In addition, the efficacy in test [2] was -74.4%.

In turn, `COc1cc(C(N)=O)ccc1NC(=O)[C@@H]1N[C@@H](CC(C)(C)C)[C@@]2(C(=O)Nc3cc(Cl)ccc32)[C@H]1c1cccc(Cl)c1F` [RO8994] came in with an AC50 cell viability in test [1] of 0.934 µM. Moreover, the efficacy in test [2] is -110%.

Consider `COC(=O)c1ccc([C@H]2c3[nH]c4ccccc4c3C[C@H](C(=O)OC)N2C(=O)CCl)cc1` [RSL3], for which, in test [1], the AC50 cell viability was determined as 11.8 µM. For the same compound, the efficacy in test [2] is -110%.

Turning to `COC1=CC(=C2C(=O)N\C(=N/C2=C1)C3=CC(=C(OCCO)C(=C3)C)C)OC` [RVX-208], in test [1], the AC50 cell viability is 18.6 µM. Moreover, the efficacy in test [2] is -41.5%.

Compound `COc1cc(OC)cc(N2CCN(C(=O)Nc3nc4cc(F)ccc4nc3OC)CC2)c1` [RX-5902 (SUPINOXIN)] had an AC50 cell viability in test [1] of 2.63 µM. Also, the efficacy in test [2] is -60%.

With `COCCCOc1ccnc(CS(=O)c2nc3ccccc3[n-]2)c1C.[Na+]` (stereo not given) [Rabeprazole], the AC50 cell viability in test [1] stood at 16.6 µM. Further, the efficacy in test [2] is -43.4%.

In test [1], `Cc1cnc(NC(=O)Nc2cc(Br)c(C)cc2OC[C@@H]2CNCCO2)cn1` [Rabusertib] yielded an AC50 cell viability of 16.6 µM. Also, in test [2], the efficacy is -103%.
